Results taken from ChEMBL document CHEMBL4483862, “Open-source discovery of chemical leads for next-generation chemoprotective antimalarials” (2018).
pIC50: −log10 of the molar value.

Test system: Plasmodium berghei
Assay: Luciferase/luciferin-expressing antifolate-resistant parasites were used to infect a culture of HepG2 cells that were pre-incubated with compounds. Infected hepatocytes emit light due to the luciferase reaction. Assay results are presented as the percent inhibition of light emission compared to control. […]
Type: functional
Conditions: sporozoite; for IC90: read-out: LUCIFERASE INFECTION ASSAY - IC90

`COc1nc(-c2ccccc2)cc(-c2ccc3c(c2)OCO3)c1C#N` gave a pIC50 (HEPG2TOX_HILL_SLOPE 1.05, HEPG2TOX_R_SQUARED 0.733, PBLUC_HILL_SLOPE 1.42, PBLUC_R_SQUARED 0.508, read-out: LUCIFERASE INFECTION ASSAY - IC50) of 5.91 and an IC90 of 5.77 µM.
With `CC(C)(C)c1ccc(C(=O)Nc2ccc(Oc3cccnc3)nc2)cc1` the pIC50 (HEPG2TOX_HILL_SLOPE 1.03, HEPG2TOX_R_SQUARED 0.91, PBLUC_HILL_SLOPE 1.13, PBLUC_R_SQUARED 0.427, read-out: LUCIFERASE INFECTION ASSAY - IC50) was 5.51 and the IC90 was > 9.5 µM.
In the case of `Oc1cc(C(F)(F)F)nc(-c2ccccn2)n1`, the pIC50 (HEPG2TOX_HILL_SLOPE 1.09, HEPG2TOX_R_SQUARED 0.904, PBLUC_HILL_SLOPE 3.05, PBLUC_R_SQUARED 0.293, read-out: LUCIFERASE INFECTION ASSAY - IC50) was 5.09 and the IC90 was 5.54 µM.
Compound `CCc1nnc(S)n1/N=C/c1c(C)nn(-c2ccccc2)c1Cl` has a pIC50 (HEPG2TOX_HILL_SLOPE 1.03, HEPG2TOX_R_SQUARED 0.933, PBLUC_HILL_SLOPE 1.45, PBLUC_R_SQUARED 0.745, read-out: LUCIFERASE INFECTION ASSAY - IC50) of 6.81 and an IC90 of 0.704 µM.
`Oc1c(Cl)cc(Cl)cc1C1Nc2cc(Cl)c(C(F)(F)F)cc2N1` (configuration not stated) showed a pIC50 (HEPG2TOX_HILL_SLOPE 1.05, HEPG2TOX_R_SQUARED 0.96, PBLUC_HILL_SLOPE 13.2, PBLUC_R_SQUARED 0.588, read-out: LUCIFERASE INFECTION ASSAY - IC50) of 6.97 and an IC90 of 0.127 µM.
`O=C(CN1CCC(Nc2ncnc3cc(Cl)ccc23)CC1)Nc1ccccc1` was tested, and the pIC50 (HEPG2TOX_HILL_SLOPE 1.03, HEPG2TOX_R_SQUARED 0.872, PBLUC_HILL_SLOPE 1.97, PBLUC_R_SQUARED 0.801, read-out: LUCIFERASE INFECTION ASSAY - IC50) was 5.72 and the IC90 was 5.83 µM.
Work on `COc1ccc2cc(CNc3ncnc4n[nH]cc34)ccc2c1` yielded a pIC50 (HEPG2TOX_HILL_SLOPE 1.04, HEPG2TOX_R_SQUARED 0.97, PBLUC_HILL_SLOPE 1.64, PBLUC_R_SQUARED 0.72, read-out: LUCIFERASE INFECTION ASSAY - IC50) of 5.95 and an IC90 of 4.29 µM.
`COc1ccc(CO/N=C/NC(=O)C(c2ccc(Cl)cc2)c2nc3ccccc3nc2C(F)(F)F)cc1` (configuration not stated) was tested, and the pIC50 (HEPG2TOX_HILL_SLOPE 1.06, HEPG2TOX_R_SQUARED 0.661, read-out: LUCIFERASE INFECTION ASSAY - IC50) was < 5.20 and the IC90 was > 6.24 µM.
In the case of `CCCn1nc(C(=O)NCC(c2ccc(OC)cc2)N2CCOCC2)c2ccccc2c1=O` (configuration not stated), the pIC50 (HEPG2TOX_HILL_SLOPE 1.06, HEPG2TOX_R_SQUARED 0.0699, read-out: LUCIFERASE INFECTION ASSAY - IC50) was < 5.00 and the IC90 was > 10 µM.
For `O=C1NC2(CCOc3ccccc32)C(=O)N1Cc1cc2ccccc2nc1Cl` (configuration not stated), the pIC50 (HEPG2TOX_HILL_SLOPE 1.06, HEPG2TOX_R_SQUARED 0.922, PBLUC_HILL_SLOPE 24.2, PBLUC_R_SQUARED 0.349, read-out: LUCIFERASE INFECTION ASSAY - IC50) was 5.90 and the IC90 was 1.37 µM.
Work on `Cc1ccc2c(Cl)cc(Cl)c(OC(=O)C3CC3)c2n1` yielded a pIC50 (HEPG2TOX_HILL_SLOPE 1.04, HEPG2TOX_R_SQUARED 0.959, PBLUC_HILL_SLOPE 1.84, PBLUC_R_SQUARED 0.861, read-out: LUCIFERASE INFECTION ASSAY - IC50) of 5.74 and an IC90 of 6.06 µM.
With `CN(Cc1cnn(Cc2ccccc2)c1)C(=O)c1cccc(S(=O)(=O)N2CCc3ccccc32)c1` the pIC50 (HEPG2TOX_HILL_SLOPE 1.04, HEPG2TOX_R_SQUARED 0.954, PBLUC_HILL_SLOPE 3.29, PBLUC_R_SQUARED 0.175, read-out: LUCIFERASE INFECTION ASSAY - IC50) was 5.32 and the IC90 was 9.38 µM.
In the case of `Clc1ccc(-c2csc3ncnc(NCc4ccc(N5CCOCC5)nc4)c23)cc1`, the pIC50 (HEPG2TOX_HILL_SLOPE 1.06, HEPG2TOX_R_SQUARED 0.974, PBLUC_HILL_SLOPE 2.24, PBLUC_R_SQUARED 0.328, read-out: LUCIFERASE INFECTION ASSAY - IC50) was 5.26 and the IC90 was > 10 µM.
In the case of `CN(CC(=O)Nc1ccc(-c2nc3ccccc3[nH]2)cc1)S(=O)(=O)c1ccc(Cl)s1`, the pIC50 (HEPG2TOX_HILL_SLOPE 1.06, HEPG2TOX_R_SQUARED 0.764, PBLUC_HILL_SLOPE 1.55, PBLUC_R_SQUARED 0.165, read-out: LUCIFERASE INFECTION ASSAY - IC50) was < 5.00 and the IC90 was > 10 µM.
`CCc1cc(-c2n[nH]cc2-c2ccc3c(c2)OCCO3)c(O)cc1OC` showed a pIC50 (HEPG2TOX_HILL_SLOPE 1.05, HEPG2TOX_R_SQUARED 0.928, PBLUC_HILL_SLOPE 1.82, PBLUC_R_SQUARED 0.694, read-out: LUCIFERASE INFECTION ASSAY - IC50) of 6.32 and an IC90 of 1.59 µM.
For `Nn1c(SCC(=O)c2c[nH]c3ccccc23)nnc1C(F)(F)F`, the pIC50 (HEPG2TOX_HILL_SLOPE 1.03, HEPG2TOX_R_SQUARED 0.976, PBLUC_HILL_SLOPE 0.599, PBLUC_R_SQUARED 0.712, read-out: LUCIFERASE INFECTION ASSAY - IC50) was 6.65 and the IC90 was 8.78 µM.
In the case of `O=C1NC2(CCc3ccccc32)C(=O)N1Cc1cc2ccccc2nc1Cl` (configuration not stated), the pIC50 (HEPG2TOX_HILL_SLOPE 1.06, HEPG2TOX_R_SQUARED 0.864, read-out: LUCIFERASE INFECTION ASSAY - IC50) was < 5.00 and the IC90 was > 10 µM.
Work on `OCc1cccc(-c2ccc3ncc(-c4cccs4)n3n2)c1` yielded a pIC50 (HEPG2TOX_HILL_SLOPE 1.03, HEPG2TOX_R_SQUARED 0.934, PBLUC_HILL_SLOPE 12.1, PBLUC_R_SQUARED 0.638, read-out: LUCIFERASE INFECTION ASSAY - IC50) of 5.47 and an IC90 of 4.05 µM.
`COc1ccc(-c2cnc3ccc(Cc4ccccc4)nn23)cc1OC` gave a pIC50 (HEPG2TOX_HILL_SLOPE 1.09, HEPG2TOX_R_SQUARED 0.956, PBLUC_HILL_SLOPE 11.4, PBLUC_R_SQUARED 0.574, read-out: LUCIFERASE INFECTION ASSAY - IC50) of 5.50 and an IC90 of 3.83 µM.
`CNC(=O)c1ccc(CN(C2CC2)S(=O)(=O)c2cc(C)ccc2C)cc1` gave a pIC50 (HEPG2TOX_HILL_SLOPE 1.06, HEPG2TOX_R_SQUARED 0.677, PBLUC_HILL_SLOPE 1.71, PBLUC_R_SQUARED 0.782, read-out: LUCIFERASE INFECTION ASSAY - IC50) of 5.82 and an IC90 of 5.44 µM.
In the case of `N#C/C(=N\Nc1ccc(Cl)cc1)S(=O)(=O)c1ccc(Cl)cc1`, the pIC50 (HEPG2TOX_HILL_SLOPE 1.06, HEPG2TOX_R_SQUARED 0.975, PBLUC_HILL_SLOPE 5.18, PBLUC_R_SQUARED 0.893, read-out: LUCIFERASE INFECTION ASSAY - IC50) was 5.59 and the IC90 was 3.93 µM.
`CC(C)(C)c1ccc(C(O)c2nc(C(=O)NC3CC3)cs2)cc1` (configuration not stated) gave a pIC50 (HEPG2TOX_HILL_SLOPE 1.09, HEPG2TOX_R_SQUARED 0.894, PBLUC_HILL_SLOPE 10.5, PBLUC_R_SQUARED 0.569, read-out: LUCIFERASE INFECTION ASSAY - IC50) of 5.98 and an IC90 of 1.29 µM.
Work on `Cn1ccc2cc(-c3cn4c(-c5cccc(Cl)c5)cnc4cn3)ccc21` yielded a pIC50 (HEPG2TOX_HILL_SLOPE 1.09, HEPG2TOX_R_SQUARED 0.945, PBLUC_HILL_SLOPE 1.73, PBLUC_R_SQUARED 0.845, read-out: LUCIFERASE INFECTION ASSAY - IC50) of 6.09 and an IC90 of 2.86 µM.
For `Cc1cc(NNC(=O)Nc2ccc(Cl)cc2)nc2c1c(C)nn2C`, the pIC50 (HEPG2TOX_HILL_SLOPE 1.06, HEPG2TOX_R_SQUARED 0.939, PBLUC_HILL_SLOPE 2, PBLUC_R_SQUARED 0.223, read-out: LUCIFERASE INFECTION ASSAY - IC50) was 5.39 and the IC90 was > 9.57 µM.
For `CC(C)CCN1C(=O)N(C(C)C)C(=O)C12CCN(Cc1c[nH]c3ccccc13)CC2`, the pIC50 (HEPG2TOX_HILL_SLOPE 1.06, HEPG2TOX_R_SQUARED 0.491, PBLUC_HILL_SLOPE 3.87, PBLUC_R_SQUARED 0.243, read-out: LUCIFERASE INFECTION ASSAY - IC50) was < 5.09 and the IC90 was > 8.04 µM.
`COc1ccc(C(=O)/C(C#N)=N/Nc2cccc(Cl)c2Cl)cc1` showed a pIC50 (HEPG2TOX_HILL_SLOPE 1.05, HEPG2TOX_R_SQUARED 0.901, PBLUC_HILL_SLOPE 1.18, PBLUC_R_SQUARED 0.493, read-out: LUCIFERASE INFECTION ASSAY - IC50) of 5.84 and an IC90 of 9.32 µM.
For `Nc1nccnc1C(=O)Nc1nc2cc3c(cc2s1)OCCO3`, the pIC50 (HEPG2TOX_HILL_SLOPE 1.04, HEPG2TOX_R_SQUARED 0.527, PBLUC_HILL_SLOPE 12.4, 0.362, PBLUC_R_SQUARED 0.835, 0.759, read-out: LUCIFERASE INFECTION ASSAY - IC50) was 6.71 and the IC90 was 0.434 µM.
`Clc1ccc2nc(-c3cnn(-c4ccccc4)c3)[nH]c2c1` was tested, and the pIC50 (HEPG2TOX_HILL_SLOPE 1.09, HEPG2TOX_R_SQUARED 0.847, PBLUC_HILL_SLOPE 23.0, 2.49, PBLUC_R_SQUARED 0.431, 0.566, read-out: LUCIFERASE INFECTION ASSAY - IC50) was 5.27 and the IC90 was 7.38 µM.
For `COc1ccc(C(=O)Nc2cccc(/C=C3\S/C(=N\C4CCCC4)NC3=O)c2)cc1`, the pIC50 (HEPG2TOX_HILL_SLOPE 1.03, HEPG2TOX_R_SQUARED 0.894, PBLUC_HILL_SLOPE 3.32, PBLUC_R_SQUARED 0.257, read-out: LUCIFERASE INFECTION ASSAY - IC50) was 5.22 and the IC90 was > 10 µM.
`COc1ccc2c(c1)[nH]c1c(N(C)CCc3ccc(OC)c(OC)c3)ncnc12` was tested, and the pIC50 (HEPG2TOX_HILL_SLOPE 1.05, HEPG2TOX_R_SQUARED 0.856, PBLUC_HILL_SLOPE 1.55, PBLUC_R_SQUARED 0.53, read-out: LUCIFERASE INFECTION ASSAY - IC50) was 5.35 and the IC90 was > 8.41 µM.
With `Cc1cccc(-[n+]2c(C)cc(C=C3Sc4ccc5ccccc5c4N3C)cc2C)c1` the pIC50 (HEPG2TOX_HILL_SLOPE 1.04, HEPG2TOX_R_SQUARED 0.832, PBLUC_HILL_SLOPE 4.15, PBLUC_R_SQUARED 0.768, read-out: LUCIFERASE INFECTION ASSAY - IC50) was 6.39 and the IC90 was 0.685 µM.
